Laboratory results reported in paper PMC4310556, “Radiosynthesis and in Vivo Evaluation of Two PET Radioligands for Imaging α-Synuclein” (Applied sciences (Basel, Switzerland), 2014).
“And” between values parts separate entries of the source, which are not always exact repeats. Equal values may be shown once. Blank lines part the entries; values can stand above or below the compound they belong to.

How the values were obtained:
[1] = Ex vivo biodistribution in rats; design: species or system Sprague-Dawley rats; details: for Blood-brain barrier penetration: ex vivo rat biodistribution; for Biodistribution, blood / Biodistribution, brain (total brain uptake) / Biodistribution, fat / Biodistribution, heart / Biodistribution, kidney / Biodistribution, liver / Biodistribution, lung / Biodistribution, muscle / Biodistribution, pancreas / Biodistribution, spleen / Biodistribution, bone: male Sprague-Dawley rats, i.v. tail vein, n = 4; for Distribution of radioactivity in brain regions: rat brain regions, Figure 2
Method: All animal experiments were conducted in compliance with the Guidelines for the Care and Use of Research Animals under protocols approved by Washington University's Animal Studies Committee. […] Group of rats (n = 4) were used for each time point. […] The whole brain was quickly removed and dissected into segments consisting of brain stem, thalamus, striatum, hippocampus, cortex and cerebellum. The remainder of the brain was also collected to determine total brain uptake. […] Tissues were weighed, and the percent injected dose (%ID)/gram for each tissue was calculated.

[2] = MicroPET brain imaging in cynomolgus macaque; type: in vivo
Method: Before each scan (n = 2), the animal was fasted for 12 h and then initially anesthetized with ketamine (10 mg/kg) and glycopyrrolate (0.13 mg/kg) intramuscularly. Upon arrival at the scanner, the monkey was intubated, and a percutaneous catheter placed for tracer injection. The head was positioned supine in the adjustable head holder with the brain in the center of the field of view. Anesthesia was maintained at 0.75%–2.0% isoflurane/oxygen and the core temperature maintained at 37 °C. A 10-min transmission scan was performed to confirm positioning; this was followed by a 45-min transmission scan for attenuation correction.

[3] = healthy cynomolgus macaque, microPET

- Blood-brain barrier penetration [1]: crossed the blood-brain barrier (BBB)
- Biodistribution, blood ([1]; 5 min post injection): 0.506 ± 0.040 %ID/gram
- Biodistribution, brain (total brain uptake) ([1]; 5 min post injection): 0.953 ± 0.115 %ID/gram
- Biodistribution, fat ([1]; 5 min post injection): 0.155 ± 0.023 %ID/gram
- Biodistribution, heart ([1]; 5 min post injection): 0.758 ± 0.052 %ID/gram
- Biodistribution, kidney ([1]; 5 min post injection): 1.362 ± 0.054 %ID/gram
- Biodistribution, liver ([1]; 5 min post injection): 2.198 ± 0.111 %ID/gram
- Biodistribution, lung ([1]; 5 min post injection): 1.149 ± 0.058 %ID/gram
- Biodistribution, muscle ([1]; 5 min post injection): 0.271 ± 0.005 %ID/gram
- Biodistribution, pancreas ([1]; 5 min post injection): 1.007 ± 0.262 %ID/gram
- Biodistribution, spleen ([1]; 5 min post injection): 0.659 ± 0.049 %ID/gram
- Biodistribution, blood ([1]; 30 min post injection): 0.369 ± 0.031 %ID/gram
- Biodistribution, brain (total brain uptake) ([1]; 30 min post injection): 0.287 ± 0.046 %ID/gram
- Biodistribution, fat ([1]; 30 min post injection): 0.241 ± 0.042 %ID/gram
- Biodistribution, heart ([1]; 30 min post injection): 0.377 ± 0.046 %ID/gram
- Biodistribution, kidney ([1]; 30 min post injection): 0.807 ± 0.086 %ID/gram
- Biodistribution, liver ([1]; 30 min post injection): 1.349 ± 0.116 %ID/gram
- Biodistribution, lung ([1]; 30 min post injection): 0.740 ± 0.038 %ID/gram
- Biodistribution, muscle ([1]; 30 min post injection): 0.325 ± 0.030 %ID/gram
- Biodistribution, pancreas ([1]; 30 min post injection): 0.506 ± 0.066 %ID/gram
- Biodistribution, spleen ([1]; 30 min post injection): 0.400 ± 0.052 %ID/gram
- Biodistribution, blood ([1]; 60 min post injection): 0.300 ± 0.015 %ID/gram
- Biodistribution, fat ([1]; 60 min post injection): 0.293 ± 0.076 %ID/gram
- Biodistribution, heart ([1]; 60 min post injection): 0.245 ± 0.010 %ID/gram
- Biodistribution, kidney ([1]; 60 min post injection): 0.559 ± 0.053 %ID/gram
- Biodistribution, liver ([1]; 60 min post injection): 1.116 ± 0.024 %ID/gram
- Biodistribution, lung ([1]; 60 min post injection): 0.485 ± 0.036 %ID/gram
- Biodistribution, muscle ([1]; 60 min post injection): 0.199 ± 0.016 %ID/gram
- Biodistribution, pancreas ([1]; 60 min post injection): 0.522 ± 0.036 %ID/gram
- Biodistribution, spleen ([1]; 60 min post injection): 0.386 ± 0.027 %ID/gram
- Time of peak brain uptake post-injection (time-activity curve) ([2]; healthy adult male cynomolgus macaque, i.v., microPET): 3 min
- Blood-brain barrier penetration [2, 3]: able to cross the BBB
Structure (SMILES): [11CH3]Oc1ccc2c(c1)Sc1cc([N+](=O)[O-])ccc1N2 [[^11C]2a]
- Biodistribution, brain (total brain uptake) ([1]; 60 min post injection): 0.158 ± 0.014 %ID/gram and 0.158 ± 0.013 %ID/gram
- Distribution of radioactivity in brain regions [1]: homogeneous distribution in the brain regions
- Brain washout kinetics [2, 3]: fast washout kinetics from the brain regions
- Distribution of radioactivity in the brain ([2]; healthy cynomolgus macaque, summed image 0-120 min): homogeneous distribution of radioactivity in the brain

- Blood-brain barrier penetration [1]: crossed the blood-brain barrier (BBB)
- Biodistribution, blood ([1]; 5 min post injection): 0.553 ± 0.047 %ID/gram
- Biodistribution, bone ([1]; 5 min post injection): 0.340 ± 0.027 %ID/gram
- Biodistribution, brain (total brain uptake) ([1]; 5 min post injection): 0.758 ± 0.013 %ID/gram
- Biodistribution, fat ([1]; 5 min post injection): 0.255 ± 0.037 %ID/gram
- Biodistribution, heart ([1]; 5 min post injection): 0.757 ± 0.033 %ID/gram
- Biodistribution, kidney ([1]; 5 min post injection): 1.070 ± 0.058 %ID/gram
- Biodistribution, liver ([1]; 5 min post injection): 1.626 ± 0.221 %ID/gram
- Biodistribution, lung ([1]; 5 min post injection): 0.833 ± 0.053 %ID/gram
- Biodistribution, muscle ([1]; 5 min post injection): 0.430 ± 0.031 %ID/gram
- Biodistribution, pancreas ([1]; 5 min post injection): 1.004 ± 0.147 %ID/gram
- Biodistribution, spleen ([1]; 5 min post injection): 0.672 ± 0.064 %ID/gram
- Biodistribution, blood ([1]; 30 min post injection): 0.589 ± 0.016 %ID/gram
- Biodistribution, bone ([1]; 30 min post injection): 0.309 ± 0.020 %ID/gram
- Biodistribution, brain (total brain uptake) ([1]; 30 min post injection): 0.465 ± 0.018 %ID/gram
- Biodistribution, fat ([1]; 30 min post injection): 0.425 ± 0.023 %ID/gram
- Biodistribution, heart ([1]; 30 min post injection): 0.505 ± 0.015 %ID/gram
- Biodistribution, kidney ([1]; 30 min post injection): 0.988 ± 0.090 %ID/gram
- Biodistribution, liver ([1]; 30 min post injection): 0.847 ± 0.027 %ID/gram
- Biodistribution, lung ([1]; 30 min post injection): 0.561 ± 0.021 %ID/gram
- Biodistribution, muscle ([1]; 30 min post injection): 0.451 ± 0.018 %ID/gram
- Biodistribution, pancreas ([1]; 30 min post injection): 0.546 ± 0.068 %ID/gram
- Biodistribution, spleen ([1]; 30 min post injection): 0.509 ± 0.022 %ID/gram
- Biodistribution, blood ([1]; 60 min post injection): 0.606 ± 0.035 %ID/gram
- Biodistribution, bone ([1]; 60 min post injection): 0.407 ± 0.043 %ID/gram
- Biodistribution, brain (total brain uptake) ([1]; 60 min post injection): 0.410 ± 0.030 %ID/gram
- Biodistribution, fat ([1]; 60 min post injection): 0.371 ± 0.067 %ID/gram
- Biodistribution, heart ([1]; 60 min post injection): 0.466 ± 0.040 %ID/gram
- Biodistribution, kidney ([1]; 60 min post injection): 0.678 ± 0.032 %ID/gram
- Biodistribution, liver ([1]; 60 min post injection): 0.561 ± 0.028 %ID/gram
- Biodistribution, lung ([1]; 60 min post injection): 0.491 ± 0.030 %ID/gram
- Biodistribution, muscle ([1]; 60 min post injection): 0.376 ± 0.019 %ID/gram
- Biodistribution, pancreas ([1]; 60 min post injection): 0.409 ± 0.029 %ID/gram
- Biodistribution, spleen ([1]; 60 min post injection): 0.446 ± 0.038 %ID/gram
- Biodistribution, blood ([1]; 120 min post injection): 0.585 ± 0.046 %ID/gram
- Biodistribution, bone ([1]; 120 min post injection): 0.644 ± 0.071 %ID/gram
- Biodistribution, brain (total brain uptake) ([1]; 120 min post injection): 0.359 ± 0.016 %ID/gram
- Biodistribution, fat ([1]; 120 min post injection): 0.293 ± 0.048 %ID/gram
- Biodistribution, heart ([1]; 120 min post injection): 0.410 ± 0.030 %ID/gram
- Biodistribution, kidney ([1]; 120 min post injection): 0.659 ± 0.027 %ID/gram
- Biodistribution, liver ([1]; 120 min post injection): 0.467 ± 0.023 %ID/gram
- Biodistribution, lung ([1]; 120 min post injection): 0.436 ± 0.018 %ID/gram
- Biodistribution, muscle ([1]; 120 min post injection): 0.315 ± 0.015 %ID/gram
- Biodistribution, pancreas ([1]; 120 min post injection): 0.330 ± 0.021 %ID/gram
- Biodistribution, spleen ([1]; 120 min post injection): 0.398 ± 0.019 %ID/gram
- In vivo defluorination (bone uptake) ([1]; rats, bone uptake up to 120 min): no defluorination was observed
Structure (SMILES): O=[N+]([O-])c1ccc2c(c1)Sc1cc(OCC[18F])ccc1N2 [[^18F]2b]
- Distribution of radioactivity in brain regions [1]: homogeneous distribution in the brain regions
